From patent US20110171274A1, “Fesoterodine Substantially Free of Dehydroxy Impurity” (ACTAVIS GROUP PTC EHF, priority 2008, published 2011)
Where a name gives a salt, the structure may show the parent alone.

Columns and labels:
Type in all cases: physicochemical
[1] = Particle size distribution by laser diffraction (Malvern Master Sizer 2000); details: for Particle Size (D10) / Particle Size (D50) / Particle Size (D90): as crystallised from isopropyl alcohol / isopropyl ether
Description: As used herein, “Particle Size Distribution (PSD)” means the cumulative volume size distribution of equivalent spherical diameters as determined by laser diffraction in Malvern Master Sizer 2000 equipment or its equivalent. “Mean particle size distribution, i.e., (D50)” correspondingly, means the median of said particle size distribution.
The important characteristics of the PSD were the (D90), which is the size, in microns, below which 90% of the particles by volume are found, and the (D50), which is the size, in microns, below which 50% of the particles by volume are found.

[2] = Storage stability (crystalline form, lack of formation of impurities); details: about 25±2° C., relative humidity about 60±5%
Description: The term “remains stable”, as defined herein, refers to lack of formation of impurities, while being stored as described hereinbefore.

[3] = Solubility of fesoterodine fumarate in solvents

| SMILES | Particle Size (D10) [1] | Particle Size (D50) [1] | Particle Size (D90) [1] | other results |
| --- | --- | --- | --- | --- |
| CC(C)C(=O)Oc1ccc(CO)cc1[C@H](CCN(C(C)C)C(C)C)c1ccccc1 [Example 8, Fesoterodine Fumarate] | 4.518 μm | 22.291 μm | 85.415 μm |  |
| CC(C)C(=O)Oc1ccc(CO)cc1[C@H](CCN(C(C)C)C(C)C)c1ccccc1 [Example 9, Fesoterodine Fumarate] | 4.485 μm | 31.876 μm | 110.282 μm |  |
| CC(C)C(=O)Oc1ccc(CO)cc1[C@H](CCN(C(C)C)C(C)C)c1ccccc1 [Fesoterodine fumarate, 2-[(1R)-3-[bis(1-methylethyl)amino]-1-phenylpropyl]-4-hydroxymethylphenyl isobutyrate] |  |  |  | storage stability ([2]; 3 months): remains in the same crystalline form and stable; storage stability ([2]; at least one month): remains in the same crystalline form and stable; solubility in aqueous solvents ([3]; aqueous solvents): freely soluble; solubility in heptane ([3]; heptane): practically insoluble; solubility in polar non protic solvents ([3]; polar non protic solvents (acetone, DMF, DMSO, acetonitrile)): soluble; solubility in polar protic organic solvents ([3]; some polar protic organic solvents (ethanol, methanol, glacial acetic acid, 2-propanol, propylene glycol)): soluble; solubility in toluene ([3]; toluene): slightly soluble |
| CC(C)C(=O)Oc1ccc(CO)cc1[C@H](CCN(C(C)C)C(C)C)c1ccccc1 [Example 7, Fesoterodine Fumarate] | 4.243 μm | 14.875 μm | 90.272 μm |  |
| CC(C)C(=O)Oc1ccc(CO)cc1[C@H](CCN(C(C)C)C(C)C)c1ccccc1 [Example 10, Fesoterodine fumarate] |  |  |  | diameter of 90 volume-% of the particles (D90) ([1]; after fine-milling in a grinder for 3-4 minutes): less than 50 microns |
